{"source": "patent US9297798B2", "about": "“Therapeutic approach for polyglutamine degeneration” (The Chinese University of Hong Kong, priority 2013, dated 2016)", "key": {"DsRedCAG100 RNA toxicity": {"tested_on": "DsRedCAG100 RNA toxicity", "test": "Pseudopupil assay in DsRedCAG100 Drosophila fed with peptide", "format": "in vivo", "conditions": "larvae fed with synthetic peptide at 100 μM until adulthood", "protocol": "FIG. 3. Illustrates an in vivo reduction in expanded CAG-RNA toxicity by feeding Drosophila fly lines that overexpress DsRedCAG100 RNA with synthetic Nucleolin P3 peptide. DsRedCAG0 (A-C) and DsRedCAG100 (D-F) F1 larvae were fed with 100 μM of NCL P3 peptide until adulthood. Representative images of rhabdomeres (light-sensing organelles in eyes) taken from 1 day-old adult flies are shown. The average number of rhabdomeres per ommatidium (single eye unit of the adult flies) is shown at the bottom left hand corner of each image, and “+/−” represents s.e.m. from 3 independent sets of experiments. “NCL P3WT” represents wildtype NCL P3 peptide while “NCL P3MTc” represents mutant c NCL P3 peptide.\nDsRedCAG RNA was expressed in Drosophila fly eyes. DsRedCAG0 (FIGS. 3A-C) and DsRedCAG100 (FIGS. 3D-F) using a pseudopupil assay (Chan W M, et al. 2011). F1 larvae were fed with 100 μM of NCL P3 peptides until adulthood. The overexpression caused the integrity of the internal eye structure to deteriorate, as indicated by the reduced number of rhabdomeres which are subcellular organelles responsible for phototransduction (FIG. 3D). DsRedCAG100 larvae were fed with synthetic P3MTc (FIG. 3E) or P3 (FIG. 3F) peptide at 100 μM."}, "[1]": {"tested_on": "GRP78/BiP expression in MJDCAG78-expressing HEK293 cells", "test": "Real-time PCR of GRP78/BiP in MJDCAG78-expressing HEK293 cells", "format": "cell-based", "conditions": "MJDCAG78-expressing HEK293 cells (FIG. 5D)", "source_text": "(§1) FIG. 5. Depicts the distinct stress responses induced by toxic expanded CAG-RNA and polyQ protein which can be differentiated by pre-rRNA and GRP78/BiP gene expression respectively in transgenic Drosophila and mammalian cell models. […] “dpe” denotes days post eclosion. The CAG repeat sequence of the DsRedCAG constructs is located in the 3′ UTR, thus expanded CAG RNA is produced but not expanded polyglutamine protein. Only RNA toxicity is observed in the DsRedCAG model. […] The MJDCAG constructs express both expanded CAG RNA and polyglutamine protein. […] The MJDCAA/G construct only generates polyQ protein toxicity because the continuity of the expanded CAG sequence is disrupted which disrupts RNA toxicity. (D) Real-time PCR analysis of the effects of RNA and protein toxicity peptidylic inhibitors on pre-45s rRNA and GRP78/BiP expression in an MJD disease cell model. HEK293 cells expressing a polynucleotide encoding MJDCAG78 reduced pre-45s rRNA transcription and induced GRP78/BiP expression. […] Cells expressing a polynucleotide encoding MJDCAG27 served as a control. “SCR” and “P3MT5” represent scrambled QBP1 and mutant P3 peptides respectively."}, "[2]": {"tested_on": "pre-45s rRNA transcription in MJDCAG78-expressing HEK293 cells", "test": "Real-time PCR of pre-45s rRNA in MJDCAG78-expressing HEK293 cells", "format": "cell-based", "conditions": "MJDCAG78-expressing HEK293 cells (FIG. 5D)", "source_text": "as §1"}, "polyQ protein toxicity": {"tested_on": "polyQ protein toxicity", "conditions": "reported in literature, in vitro and in vivo; cited from earlier work"}, "[3]": {"tested_on": "Drosophila polyQ disease model", "test": "Pseudopupil assay in transgenic Drosophila polyQ model (RNA and protein toxicities)", "format": "in vivo", "conditions": "third instar larvae incubated with peptides (100 μM each); pseudopupil assay on 0-3 day-old adult flies", "protocol": "FIG. 7. (A) A co-treatment approach to target RNA and protein toxicities of polyQ diseases. (B) The combined effect of P3 and QBP1 peptides on suppressing neurodegeneration in a transgenic Drosophila polyQ model. Third instar larvae were incubated with corresponding peptides (100 μM each). Pseudopupil assay was performed on 0-3 day-old adult flies. The average number of rhabdomeres per ommatidium (single eye unit of the adult flies) is shown at the bottom left hand corner of each image. (C) Statistical analysis of (B). “WT” and “MT5” represent wildtype and mutant P3 peptides respectively. “SCR” denotes a scrambled sequence of QBP1. * represents P<0.05; ** represents P<0.01. Error bars represent standard deviation. Because both expanded CAG RNA and polyQ protein contribute to neurotoxicity, a therapeutic strategy that simultaneously targets these toxic species would be ideal for treatment. A similar combined therapeutic approach was recently reported in cancer treatment (Suzuki, et al., 2013), indicating its therapeutic potential of this strategy. We have performed a pilot study to simultaneously target both the RNA and protein toxicities using a well-studied protein toxicity peptide QBP1 (Nagai, et al., 2000) and P3, and has obtained satisfactory suppression (FIG. 7A)."}, "[4]": {"tested_on": "interaction between purified NCL and expanded CAG RNA (NCL: CAG78 RNA complex)", "test": "Competition assay: GST-NCL / CAG78 RNA pull-down on glutathione beads, bound RNA by RT-PCR", "format": "binding", "source_text": "Purified GST-nucleolin (GST-NCL) protein was purchased from Abnova (H00004691-P01), and the control GST protein was expressed and purified as previously described (Tsoi H, et al. 2011). The CAG78 (SEQ ID NO:18) and CUG78 (SEQ ID NOP:19) RNAs were synthesized from a pcDNA3.1-MJDCAG78 PCR product, using the MEGAscript kit (Ambion) with the following primer pairs: T7CAGF, 5′-TAA AC GACTCACTATAGGGAGAAGAAGCCTACTTTGAAAAA-3′ (SEQ ID NO:20) and CAGR, 5′-CTG TCC TGA TAG GTC CCG-3′ (SEQ ID NO:21) for CAG78 (SEQ ID NO:18); and T7CUGF, 5′-TAATACGACTCACTATAGGGAGAAGACACGACTATCCAGGGC-3′ (SEQ ID NO:22) and CUGR, 5′-CTT CGG ATG AAA CTT TTT-3′ (SEQ ID NO:23) for CUG78 (SEQ ID NO:19). To perform in vitro protein-RNA interaction, 50 ng of GST protein was first captured by glutathione Sepharose beads (GE Healthcare). The purified in vitro transcribed RNA (10 pmol) was allowed to bind with GST-coated glutathione Sepharose beads and the mixture was incubated at 4° C. overnight in a 500-μL reaction volume. Before elution, the protein-RNA mixture was washed three times with 1 mL of binding buffer [20 mM Hepes, pH 7.4, 150 mM NaCl, 5 mM MgCl2, 0.5% Nonidet P-40, 40 units RNAsin (Promega), and 1 mg/mL yeast tRNA (Sigma)]. Bound RNA was then extracted for RT-PCR as described in Tsoi H, et al. 2011.\nThese peptides were then tested for the ability to interact with expanded CAG RNA. […]"}}}
{"substance": "DGKSKGIAAIEAK (synthetic nucleolin RNA recognition motif (RRM), RRM domain of nucleolin, RRM-related sequence core amino acid sequence P3MT5/MTc) [Peptide P3MT5]", "values": [{"measurement": "suppression of DsRedCAG100 RNA toxicity (pseudopupil assay score)", "setting": "DsRedCAG100 RNA toxicity", "value": "did not exert any rescuing effect"}, {"measurement": "GRP78/BiP induction", "setting": "[1]", "value": "did not demonstrate such suppressive effects"}, {"measurement": "pre-45s rRNA transcription", "setting": "[2]", "value": "did not demonstrate such suppressive effects"}]}
{"substance": "S N W K W W P G I F D (SNWKWWPGIFD; synthetic polyQ-mediated toxicity inhibitor peptide QBP1) [reference compound]", "values": [{"measurement": "GRP78/BiP induction", "setting": "[1]", "value": "suppressed GRP78/BiP induction"}, {"measurement": "pre-45s rRNA transcription", "setting": "[2]", "value": "restored pre-45s rRNA transcription"}, {"measurement": "suppression of polyQ protein toxicity", "setting": "polyQ protein toxicity", "value": "capable of suppressing polyQ protein toxicity both in vitro and in vivo"}, {"measurement": "suppression of neurodegeneration in Drosophila polyQ disease model", "setting": "[3]", "value": "substantial suppression"}]}
{"substance": "VPQNQNGKSKGYAF (synthetic nucleolin RNA recognition motif (RRM), RRM domain of nucleolin, RRM-related sequence core amino acid sequence P5) [Peptide P5]", "values": [{"measurement": "disruption of the interaction between purified NCL and expanded CAG RNA, dose dependence", "setting": "[4]; P3 at 10, 50, 100, 250, and 750 μM with NCL and CAG78 RNA (FIG. 1D)", "value": "able to interfere with the interaction between purified NCL and expanded CAG RNA"}, {"measurement": "interference with the interaction between purified NCL and expanded CAG RNA", "setting": "[4]; Ten μM of each peptide with purified GST-NCL and CAG78 RNA (FIG. 1C)", "value": "able to interfere with the interaction between purified NCL and expanded CAG RNA"}]}
